One assay has as its target T1, URAT1 (Homo sapiens, UniProt Q96S37).
T1 construct: gene SLC22A12; NM_144585.3, baculovirus-transduced HEK293 cells
T1 sequence (Q96S37 1-553): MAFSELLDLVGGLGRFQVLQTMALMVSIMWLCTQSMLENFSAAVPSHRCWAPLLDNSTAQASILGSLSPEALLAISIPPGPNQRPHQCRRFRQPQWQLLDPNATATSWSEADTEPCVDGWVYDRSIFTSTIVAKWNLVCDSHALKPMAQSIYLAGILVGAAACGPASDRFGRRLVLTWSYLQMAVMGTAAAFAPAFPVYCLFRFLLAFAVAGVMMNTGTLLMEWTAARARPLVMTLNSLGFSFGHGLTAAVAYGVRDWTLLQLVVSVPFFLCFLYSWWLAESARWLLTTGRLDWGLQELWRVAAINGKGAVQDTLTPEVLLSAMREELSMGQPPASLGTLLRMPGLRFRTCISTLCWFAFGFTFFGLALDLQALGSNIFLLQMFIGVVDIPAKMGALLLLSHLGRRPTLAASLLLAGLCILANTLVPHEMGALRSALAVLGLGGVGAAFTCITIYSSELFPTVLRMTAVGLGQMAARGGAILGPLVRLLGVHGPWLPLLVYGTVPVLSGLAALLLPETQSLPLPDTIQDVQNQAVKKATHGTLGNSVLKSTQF
The assay can be described thus: model substrate uptake vs control cells. It is filed as cell-based.

Assay [1] concerns the target T2, OAT3 (Homo sapiens, UniProt Q8TCC7).
T2 construct: gene SLC22A8; NM_004254.3, baculovirus-transduced HEK293 cells
T2 sequence (Q8TCC7 1-542): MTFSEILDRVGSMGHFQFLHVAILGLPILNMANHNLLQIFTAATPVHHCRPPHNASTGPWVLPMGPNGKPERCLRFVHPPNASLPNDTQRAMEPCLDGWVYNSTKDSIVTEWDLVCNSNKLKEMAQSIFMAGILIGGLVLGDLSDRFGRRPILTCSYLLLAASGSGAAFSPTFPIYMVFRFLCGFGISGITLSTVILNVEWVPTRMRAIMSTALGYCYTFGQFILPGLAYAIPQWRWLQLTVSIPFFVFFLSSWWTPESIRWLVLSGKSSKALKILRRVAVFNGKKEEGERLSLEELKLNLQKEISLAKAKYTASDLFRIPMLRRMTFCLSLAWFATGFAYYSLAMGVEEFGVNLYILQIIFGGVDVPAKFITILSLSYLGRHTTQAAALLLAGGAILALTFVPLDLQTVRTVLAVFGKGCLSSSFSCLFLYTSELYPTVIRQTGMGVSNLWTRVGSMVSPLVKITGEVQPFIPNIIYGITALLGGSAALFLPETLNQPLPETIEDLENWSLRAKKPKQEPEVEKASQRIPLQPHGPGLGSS
Kind of assay: radiolabelled model substrate uptake ([…]). The format is cell-based.

For the next assay, the target named is T3, PEPT1 (Homo sapiens, UniProt P46059).
T3 construct: gene SLC15A1; NM_005073.3, baculovirus-transduced HEK293 cells
T3 sequence (P46059 1-708): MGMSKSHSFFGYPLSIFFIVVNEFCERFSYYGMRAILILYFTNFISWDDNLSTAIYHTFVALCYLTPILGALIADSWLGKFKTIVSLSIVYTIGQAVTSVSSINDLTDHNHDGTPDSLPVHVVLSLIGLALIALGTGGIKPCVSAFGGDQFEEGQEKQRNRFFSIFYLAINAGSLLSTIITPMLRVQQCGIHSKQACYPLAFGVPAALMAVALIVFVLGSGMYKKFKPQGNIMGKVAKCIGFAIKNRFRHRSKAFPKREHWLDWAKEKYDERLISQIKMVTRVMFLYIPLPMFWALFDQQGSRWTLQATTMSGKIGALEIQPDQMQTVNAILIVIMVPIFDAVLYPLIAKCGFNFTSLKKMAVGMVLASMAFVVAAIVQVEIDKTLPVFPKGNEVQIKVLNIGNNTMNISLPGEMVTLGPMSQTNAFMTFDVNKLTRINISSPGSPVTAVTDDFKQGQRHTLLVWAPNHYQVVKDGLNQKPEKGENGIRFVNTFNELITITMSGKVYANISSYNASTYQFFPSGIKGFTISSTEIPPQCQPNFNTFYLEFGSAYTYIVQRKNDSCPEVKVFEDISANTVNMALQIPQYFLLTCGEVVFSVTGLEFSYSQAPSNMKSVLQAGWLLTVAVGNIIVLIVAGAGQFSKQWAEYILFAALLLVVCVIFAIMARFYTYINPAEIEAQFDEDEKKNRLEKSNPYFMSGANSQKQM
Kind of assay: radiolabelled model substrate uptake vs control cells. It is filed as cell-based.

In a further assay the target is T4, PEPT2 (Homo sapiens, UniProt Q16348).
T4 construct: gene SLC15A2; NM_021082.3, baculovirus-transduced HEK293 cells
T4 sequence (Q16348 1-729): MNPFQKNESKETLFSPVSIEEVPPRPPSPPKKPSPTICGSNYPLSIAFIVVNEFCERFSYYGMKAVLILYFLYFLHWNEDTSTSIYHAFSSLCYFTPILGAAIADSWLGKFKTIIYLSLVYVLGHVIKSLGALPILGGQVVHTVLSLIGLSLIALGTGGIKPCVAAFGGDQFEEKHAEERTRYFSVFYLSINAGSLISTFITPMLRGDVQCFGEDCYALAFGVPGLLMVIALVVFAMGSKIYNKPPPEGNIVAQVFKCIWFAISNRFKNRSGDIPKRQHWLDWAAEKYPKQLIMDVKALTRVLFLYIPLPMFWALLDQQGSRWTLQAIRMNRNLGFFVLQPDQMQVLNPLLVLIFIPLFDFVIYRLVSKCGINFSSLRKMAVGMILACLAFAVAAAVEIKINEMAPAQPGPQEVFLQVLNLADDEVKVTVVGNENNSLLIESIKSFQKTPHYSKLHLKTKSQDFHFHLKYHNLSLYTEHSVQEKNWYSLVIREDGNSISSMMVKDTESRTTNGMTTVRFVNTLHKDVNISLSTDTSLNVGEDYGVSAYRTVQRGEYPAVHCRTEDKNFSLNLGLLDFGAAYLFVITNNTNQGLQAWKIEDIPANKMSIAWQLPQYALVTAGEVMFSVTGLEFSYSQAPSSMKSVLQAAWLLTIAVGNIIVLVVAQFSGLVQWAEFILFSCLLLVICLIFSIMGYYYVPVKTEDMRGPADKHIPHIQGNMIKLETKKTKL
The assay is described as above. It is filed as cell-based.

In another assay the target is T5, OCTN1 (Homo sapiens, UniProt Q9H015).
T5 construct: gene SLC22A4; NM_003059.2, baculovirus-transduced HEK293 cells
T5 sequence (Q9H015 1-551): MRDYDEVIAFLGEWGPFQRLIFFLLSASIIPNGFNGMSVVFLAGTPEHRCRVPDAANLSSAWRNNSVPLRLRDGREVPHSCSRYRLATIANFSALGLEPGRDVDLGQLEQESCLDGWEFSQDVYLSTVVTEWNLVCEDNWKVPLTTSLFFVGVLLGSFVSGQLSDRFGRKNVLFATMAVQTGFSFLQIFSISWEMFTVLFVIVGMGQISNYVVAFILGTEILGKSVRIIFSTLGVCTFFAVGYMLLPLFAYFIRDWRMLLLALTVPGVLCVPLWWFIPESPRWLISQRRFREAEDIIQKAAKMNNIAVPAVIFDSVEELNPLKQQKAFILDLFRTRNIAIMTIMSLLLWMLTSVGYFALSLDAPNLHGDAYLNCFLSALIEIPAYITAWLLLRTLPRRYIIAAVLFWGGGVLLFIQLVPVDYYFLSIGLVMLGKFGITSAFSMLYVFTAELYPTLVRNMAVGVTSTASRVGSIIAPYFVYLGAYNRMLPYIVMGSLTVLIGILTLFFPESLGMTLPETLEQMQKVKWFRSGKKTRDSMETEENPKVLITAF
Described as above. The format is cell-based.

A further assay deals with T6, OCTN2 (Homo sapiens, UniProt O76082).
T6 construct: gene SLC22A5; NM_003060.3, baculovirus-transduced HEK293 cells
T6 sequence (O76082 1-557): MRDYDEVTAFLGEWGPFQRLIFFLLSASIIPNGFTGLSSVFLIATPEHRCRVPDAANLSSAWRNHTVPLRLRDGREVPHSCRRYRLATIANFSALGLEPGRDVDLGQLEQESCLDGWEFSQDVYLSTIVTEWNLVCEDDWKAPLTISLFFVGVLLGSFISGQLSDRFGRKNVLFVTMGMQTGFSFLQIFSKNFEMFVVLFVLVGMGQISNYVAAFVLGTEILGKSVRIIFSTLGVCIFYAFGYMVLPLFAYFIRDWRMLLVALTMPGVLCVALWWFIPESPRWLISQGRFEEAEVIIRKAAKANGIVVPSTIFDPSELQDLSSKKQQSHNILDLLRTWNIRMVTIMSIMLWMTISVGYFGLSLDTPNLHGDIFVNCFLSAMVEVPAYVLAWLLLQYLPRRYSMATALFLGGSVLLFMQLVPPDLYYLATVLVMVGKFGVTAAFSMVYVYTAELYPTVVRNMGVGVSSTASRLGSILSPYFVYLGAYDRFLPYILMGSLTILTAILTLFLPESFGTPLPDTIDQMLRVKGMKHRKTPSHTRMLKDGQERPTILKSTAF
The description is as above. It is filed as cell-based.

A further assay has as its target T7, OAT2 (Homo sapiens, UniProt Q9Y694).
T7 construct: gene SLC22A7; NM_006672, baculovirus-transduced HEK293 cells
T7 sequence (Q9Y694 1-548): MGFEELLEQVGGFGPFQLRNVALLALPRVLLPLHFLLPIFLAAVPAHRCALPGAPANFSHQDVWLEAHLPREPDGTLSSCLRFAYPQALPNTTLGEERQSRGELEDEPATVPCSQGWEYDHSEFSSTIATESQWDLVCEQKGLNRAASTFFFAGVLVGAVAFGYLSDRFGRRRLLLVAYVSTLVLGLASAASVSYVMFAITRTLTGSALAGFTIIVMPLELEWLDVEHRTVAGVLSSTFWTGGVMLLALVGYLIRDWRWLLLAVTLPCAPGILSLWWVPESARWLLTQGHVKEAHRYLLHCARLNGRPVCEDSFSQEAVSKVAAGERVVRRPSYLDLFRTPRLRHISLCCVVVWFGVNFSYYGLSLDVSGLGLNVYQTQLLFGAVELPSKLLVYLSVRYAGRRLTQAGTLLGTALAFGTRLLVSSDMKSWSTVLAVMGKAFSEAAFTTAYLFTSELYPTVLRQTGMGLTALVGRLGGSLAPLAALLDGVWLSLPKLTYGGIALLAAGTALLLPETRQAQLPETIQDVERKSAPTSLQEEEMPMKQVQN
The description is as above. The format is cell-based.

Assay [2] addresses T2, OAT3. The assay can be described thus: inhibition of [3H]-E1S uptake (Ki); LC-MS/MS uptake in OAT3-HEK293 cells (Km […]). The format is cell-based.
The next assay has as its target T8, OAT4 (Homo sapiens, UniProt Q9NSA0).
T8 construct: gene SLC22A11

Structures can show the parent of a compound that is named as a salt. Non-standard residues stand in square brackets, D forms with d. Residues, ends and D or L forms follow the SMILES beside them. Sar = CNCC(=O)O

The values that follow come from publication PMC7600309, “Completing the Enalaprilat Excretion Pathway—Renal Handling by the Proximal Tubule” (Pharmaceutics, 2020).

T8 sequence (Q9NSA0 whole entry): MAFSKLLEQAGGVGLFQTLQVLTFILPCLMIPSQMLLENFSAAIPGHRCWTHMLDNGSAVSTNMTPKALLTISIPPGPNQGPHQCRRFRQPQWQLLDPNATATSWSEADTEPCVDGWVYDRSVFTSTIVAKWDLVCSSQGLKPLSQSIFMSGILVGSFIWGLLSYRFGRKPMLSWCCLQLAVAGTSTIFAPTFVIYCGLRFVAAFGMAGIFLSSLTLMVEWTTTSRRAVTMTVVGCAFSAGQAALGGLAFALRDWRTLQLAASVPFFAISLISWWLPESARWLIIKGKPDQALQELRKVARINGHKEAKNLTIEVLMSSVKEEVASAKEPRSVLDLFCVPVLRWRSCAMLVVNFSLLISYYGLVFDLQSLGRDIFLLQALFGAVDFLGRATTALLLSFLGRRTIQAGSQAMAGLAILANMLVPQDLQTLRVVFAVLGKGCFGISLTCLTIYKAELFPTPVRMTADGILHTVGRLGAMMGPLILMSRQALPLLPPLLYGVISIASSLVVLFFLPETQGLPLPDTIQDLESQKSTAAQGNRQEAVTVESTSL

As to `O=c1[nH]c(=O)c2[nH]c(=O)[nH]c2[nH]1` [Urate], on URAT1, the “model substrate uptake vs control cells” value is “OAT2, OAT4, PEPT1, PEPT2, URAT1, OCTN1, and OCTN2 all showed a significant transport ratio compared to control cells”. Take `C[C@]12CC[C@@H]3c4ccc(OS(=O)(=O)O)cc4CC[C@H]3[C@@H]1CCC2=O` [[^3H]-Estrone sulfate]: the “radiolabelled model substrate uptake (20 nM)” value on OAT3 [1] is “Transport of [^3H]-E1S by OAT3 was determined in the presence of increasing enalaprilat concentrations”. Take `CN(CC(=O)O)C(=O)CN` [[^3H]-Glycyl-sarcosine] (H-Gly-[Sar]-OH): the “radiolabelled model substrate uptake vs control cells” value is “OAT2, OAT4, PEPT1, PEPT2, URAT1, OCTN1, and OCTN2 all showed a significant transport ratio compared to control cells” at PEPT1; “OAT2, OAT4, PEPT1, PEPT2, URAT1, OCTN1, and OCTN2 all showed a significant transport ratio compared to control cells” on PEPT2. For `C[N+](C)(C)C[C@H](O)CC(=O)[O-]` [[^14C]-Carnitine], the “radiolabelled model substrate uptake vs control cells” value was “OAT2, OAT4, PEPT1, PEPT2, URAT1, OCTN1, and OCTN2 all showed a significant transport ratio compared to control cells” on OCTN1; “OAT2, OAT4, PEPT1, PEPT2, URAT1, OCTN1, and OCTN2 all showed a significant transport ratio compared to control cells” at OCTN2. As for `Nc1ccc(C(=O)NCC(=O)O)cc1` [[^14C]-para-aminohippuric acid], on OAT2, the “radiolabelled model substrate uptake vs control cells” value was “OAT2, OAT4, PEPT1, PEPT2, URAT1, OCTN1, and OCTN2 all showed a significant transport ratio compared to control cells”.

As usually defined, the Ki is a measure of affinity in units of concentration, obtained from inhibition or displacement. Low values mean higher affinity, high ones lower affinity. Usually Km stands for the concentration of substrate that gives half-maximal velocity. Consider `C[C@H](N[C@@H](CCc1ccccc1)C(=O)O)C(=O)N1CCC[C@H]1C(=O)O` [enalaprilat], for which, at OAT3 [2], the affinity, expressed as Ki, was 134 µM. Moreover, the Michaelis constant (Km) at OAT4 is over 1 mM.
